# Tests used:
# FIG-ROS(S) = target: T1, FIG-ROS(S) (Homo sapiens, UniProt P08922); assay: Western blotting, phosphorylation of FIG-ROS(S) in BaF3 cells; type: cell-based
# T1 construct: expressed in transfected cells; host or cells: BaF3 cells, retroviral transduction
# Excerpt: (§1) All antibodies were from Cell Signaling Technology, Inc. (Danvers, Mass.)
# (§2) Since ROS, ALK, LTK, InsR, and IGFIR belong to the same family of tyrosine kinases, they may share similar structure in the kinase domain.
# Karpas 299 cells [1] = assay: Cleaved caspase-3 flow cytometry apoptosis assay, Karpas 299; type: cell-based; conditions: FIG. 7; presence of TAE-684
# Excerpt: (§3) The mechanism of death of the BaF3 and Karpas 299 cells was next assessed by measuring the percentage of cleaved-caspase 3 positive cells by flow cytometry assay using cleaved caspase-3 as a marker for apoptosis.
# FIG-ROS(L) = FIG-ROS(L) (Homo sapiens, UniProt P08922); assay: Western blotting, phosphorylation of FIG-ROS(L) in BaF3 cells; type: cell-based
# Excerpt: as §1, §2
# [2] = system: BaF3 expressing FIG-ROS(S); assay: MTS cell growth assay, BaF3 cells expressing FIG-ROS(S); type: cell-based; conditions: FIG. 6; 0-1000 nM TAE-684, 72 hours
# Experimental: (§4) BaF3 and Karpas 299 cells were obtained from DSMZ (Deutsche Sammlung von Mikroorganismen und Zellkulturen GmbH, Germany). BaF3 cells, which need interleukin-3 to survive, were maintained at 37° C. in RPMI-1640 medium (Invitrogen) with 10% fetal bovine serum (FBS) (Sigma) and 1.0 ng/ml murine IL-3 (R&D Systems). Karpas 299 cells (a lymphoma cell line) were grown in RPMI-1640 with 10% FBS.
# (§5) BaF3 cells were transduced with retrovirus encoding FIG-ROS(S), FIG-ROS(L), or FLT-3ITD (the Internal tandem duplication mutation in FLT3 causes AML leukemia), and selected for IL3 independent growth. Karpas 299 cells, which express NPM-ALK, was used as a positive control. Retroviruses were generated as previously described (see PCT Publication No. WO 2010/093928, incorporated by reference).
# (§6) A MTS assay was performed using the CellTiter 96 Aqueous One Solution Reagent (Promega, Catalog No G3582). […] After 72 hours, 20 μl of the CellTiter 96 Aqueous One Solution Reagent was added into each well of a 96 well assay plate (flat bottom), and then 100 μl of cells grown with or without treatment. Media-only wells were used as controls. The 96 well plate was incubated for 1-4 hours at 37° C., and then viable cells were counted by reading the absorbance at 490 nm using a 96 well plate reader.
# [3] = system: BaF3 cells expressing FIG-ROS(L); assay: Cleaved caspase-3 flow cytometry apoptosis assay, BaF3 FIG-ROS(L); type: cell-based; conditions: FIG. 7; presence of TAE-684
# Excerpt: as §3
# STAT3, AKT, ERK, Shp2 [4] = assay: Western blotting, downstream signaling phosphorylation in BaF3 cells transduced with FLT-3ITD; type: cell-based; conditions: BaF3 FLT-3ITD
# Excerpt: as §1, §2
# Karpas 299 cells [5] = conditions: FIG. 6; 0-1000 nM TAE-684, 72 hours
# Experimental: as §4, §5, §6
# BaF3 expressing FLT3ITD = conditions: FIG. 6; 0-1000 nM TAE-684, 72 hours
# Experimental: as §4, §5, §6
# ERK, STAT3 = assay: Western blotting, ERK/STAT3 phosphorylation in Karpas 299 cells; type: cell-based
# Excerpt: as §1, §2
# [6] = system: BaF3 cells expressing FIG-ROS(S); assay: Cleaved caspase-3 flow cytometry apoptosis assay, BaF3 FIG-ROS(S); type: cell-based; conditions: FIG. 7; presence of TAE-684
# Excerpt: as §3
# STAT3, AKT, ERK, Shp2 [7] = assay: Western blotting, downstream signaling phosphorylation in FIG-ROS(S) and FIG-ROS(L) expressing BaF3 cells; type: cell-based
# Excerpt: as §1, §2
# [8] = system: BaF3 expressing FIG-ROS(L); assay: MTS cell growth assay, BaF3 cells expressing FIG-ROS(L); type: cell-based; conditions: FIG. 6; 0-1000 nM TAE-684, 72 hours
# Experimental: as §4, §5, §6
# [9] = FIG. 8, 0, 10, 50, or 100 nM TAE-684 for three hours
# [10] = FIG. 10, 0, 0.1, 0.3, or 1.0 uM crizotinib for three hours
Structure (SMILES),phosphorylation of FIG-ROS(S) (FIG-ROS(S); [9]),mechanism of death (cleaved-caspase 3 positive cells) (Karpas 299 cells [1]),phosphorylation of FIG-ROS(L) (FIG-ROS(L); [9]),cellular growth response [2],mechanism of death (cleaved-caspase 3 positive cells) [3],"phosphorylation of STAT3, AKT, and ERK, and Shp2 (STAT3, AKT, ERK, Shp2 [4]; [9])",cellular growth response (Karpas 299 cells [5]),cellular growth response (BaF3 expressing FLT3ITD),"ERK phosphorylation (ERK, STAT3; [9])",mechanism of death (cleaved-caspase 3 positive cells) [6],"phosphorylation of STAT3, AKT, and ERK, and Shp2 (STAT3, AKT, ERK, Shp2 [7]; [9])",cellular growth response [8],phosphorylation of FIG-ROS(S) (FIG-ROS(S); [10]),phosphorylation of FIG-ROS(L) (FIG-ROS(L); [10]),"phosphorylation of STAT3 and ERK (STAT3, AKT, ERK, Shp2 [4]; [10])","STAT3 and ERK phosphorylation (ERK, STAT3; [10])","phosphorylation of STAT3 and ERK (STAT3, AKT, ERK, Shp2 [7]; [10])"
COc1cc(N2CCC(N3CCN(C)CC3)CC2)ccc1Nc1ncc(Cl)c(Nc2ccccc2S(=O)(=O)C(C)C)n1 [TAE-684],inhibited,did not die by apoptosis,inhibited,stopped growing,die by apoptosis,not affected,stopped growing,not susceptible,inhibited,die by apoptosis,inhibited,stopped growing,,,,,
C[C@@H](Oc1cc(-c2cnn(C3CCNCC3)c2)cnc1N)c1c(Cl)ccc(F)c1Cl [crizotinib],,,,,,,,,,,,,inhibited,inhibited,not affected,inhibited,inhibited

# Source: patent publication US20170275706A1, “ALK AND ROS KINASE IN CANCER” (priority 2010, published 2017)
